From patent US8377945B2, “Small molecule inhibitors of spleen tyrosine kinase (SYK)” (Rigel Pharmaceuticals Inc., priority 2009, dated 2013) come the findings set out here.

Structures are written as SMILES. Some results are limits rather than exact numbers.

Experiment [1] has as its system Human mast cells (CHMC cells). The experiment in a line: Tryptase release assay (mast cell degranulation induced by anti-IgG FcγR cross-linking). It counts as cell-based. The following applies: IC50 of tryptase release from human mast cells after anti-IgG stimulation, read-out: LD Tryptase. As for the experimental part: Compounds were assayed for inhibition of mast cell activation induced by FcγR cross-linking by measuring the activity of tryptase released upon degranulation as follows:
Human mast cells were cultured and differentiated from […] progenitor cell as described in U.S. Patent Publication No. 2005-234049, incorporated herein by reference. For example, 65 μl of various concentrations of the compound to be assayed were prepared in MT (137 mM NaCl, 2.7 mM KCl, 1.8 mM CaCl2, 1.0 mM MgCl2, 5.6 mM Glucose, 20 mM Hepes (pH 7.4), 0.1% Bovine Serum Albumin, (Sigma A4503)) containing 2% MeOH and 1% DMSO, or control buffer were added to duplicate 96-well V-bottom plates. Pelleted and resuspended (in warm MT) CHMC cells (65 μl) were added to each 96-well plate, mixed and incubated for 1 hour at 37° C. 25 μl of 6× anti-IgG Rabbit anti-human IgG, Affinity purified (Bethyl Laboratories Cat No. A80-105A3) final concentration 1 μg/ml, was added to the test wells. MT (25 μl) was added to control wells. After a 60-minute incubation at 37° C., cells and cell debris were pelleted by centrifugation at 1000 rpm for 10 min and tryptase and leukotriene C4 levels were measured.
To measure tryptase levels, 25 μl of supernatant from each well was transferred to a fresh 96-well black bottom plate, to which 100 μl of fresh tryptase substrate solution [(Z-Ala-Lys-Arg-AMC2TFA; Enzyme Systems Products, #AMC-246)] 1:2000 in tryptase assay buffer [0.1 M Hepes (pH 7.5), 10% w/v Glycerol, 10 μM Heparin (Sigma H-4898) 0.01% NaN3] was added. After 30 minute incubation at room temperature, the optical density of the plates is measured at 355 nm/460 nm on a spectrophotometric plate reader. Table 2 provides the IC50 values.

A further experiment addresses T1, Syk kinase (Homo sapiens, UniProt P43405).
T1 construct: purchased Millipore 14-314
The experiment in a line: ELISA-based Syk kinase assay (phosphorylation of HS1 peptide substrate by isolated Syk kinase). The settings on record: IC50 of Syk kinase inhibition; 2 μM ATP, 2 μM peptide substrate. It counts as biochemical. In outline: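 Recombinant Syk (0.25 ng) phosphorylated biotinylated HS1 peptide (2 μM) with 2 μM ATP in 20 mM HEPES pH 7.4, 5 mM MgCl2, 2 mM MnCl2, 1 mM DTT, 0.01% Tween 20, 3% DMSO, 30 min at room temperature on neutravidin plates. Phosphotyrosine detected by anti-pTyr/HRP chemiluminescent ELISA.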
In general terms: ELISA stands for enzyme-linked immunosorbent assay.

Consider `COc1cc(-c2[nH]c3c(C#N)cnn3c2Nc2ccc(CNC(=O)c3ccc(C(F)(F)F)nc3)cc2)cc(OC)c1OC` [Compound 156], for which the figures for the IC50 (in experiment [1]; against Syk kinase) were below 10 µM and 0.51 to 2.99 µM, respectively.

Regarding `COc1cc(-c2[nH]c3c(C#N)cnn3c2Nc2ccc(SC)c(F)c2)cc(OC)c1OC` [Compound 157], the IC50 was 11 to 100 µM in experiment [1] and below 0.5 µM against Syk kinase.
